Where two headings read alike, the source gives them in different places.
Tests used:
recombinant BACE 2 = target: T1, recombinant BACE 2 (Homo sapiens, UniProt Q9Y5Z0); experiment: enzyme inhibition of recombinant BACE 2; assay type: biochemical; settings: for selectivity BACE 2/BACE 1: ratio of Ki values; for Ki: recombinant BACE 2
T1 sequence (Q9Y5Z0 63-518): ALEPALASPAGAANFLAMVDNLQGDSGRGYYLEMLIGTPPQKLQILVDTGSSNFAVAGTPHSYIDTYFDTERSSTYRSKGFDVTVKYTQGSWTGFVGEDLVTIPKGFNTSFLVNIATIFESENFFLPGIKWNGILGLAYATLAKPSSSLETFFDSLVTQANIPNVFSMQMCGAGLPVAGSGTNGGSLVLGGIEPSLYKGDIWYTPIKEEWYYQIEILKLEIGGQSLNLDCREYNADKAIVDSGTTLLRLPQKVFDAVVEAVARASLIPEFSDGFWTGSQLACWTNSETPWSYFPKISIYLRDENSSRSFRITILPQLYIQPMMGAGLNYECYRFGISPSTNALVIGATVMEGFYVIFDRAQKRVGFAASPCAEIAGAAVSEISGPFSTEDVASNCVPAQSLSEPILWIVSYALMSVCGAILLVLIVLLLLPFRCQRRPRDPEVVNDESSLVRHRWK

[1] = target: β-secretase in neuroblastoma cells (Homo sapiens, UniProt P56817)
Text: The inventors have also evaluated the cellular inhibition of β-secretase in neuroblastoma cells.

human CD (cathepsin D) = human CD (cathepsin D) (Homo sapiens, UniProt P07339); experiment: enzyme inhibition of human cathepsin D (CD); assay type: biochemical; settings: for Ki: human CD; for selectivity CD/BACE 1: ratio of Ki values; for selectivity against CD: BACE 1 over CD
[2] = target: recombinant β-secretase (BACE 1, memapsin 2) (Homo sapiens, UniProt P56817); experiment: BACE 1 enzyme inhibitory assay against recombinant β-secretase
Experimental: The BACE 1 inhibitory activity of synthetic inhibitors 4-9 was determined against recombinant β-secretase using previously reported assay protocols (Ermolieff et al., 2000).

[3] = read-out: IC50 (nM), cellular, determined in neuroblastoma cells
[4] = read-out: Ki (nM) BACE 1, recombinant β-secretase

Chain of human CD (cathepsin D) (P07339 65-412): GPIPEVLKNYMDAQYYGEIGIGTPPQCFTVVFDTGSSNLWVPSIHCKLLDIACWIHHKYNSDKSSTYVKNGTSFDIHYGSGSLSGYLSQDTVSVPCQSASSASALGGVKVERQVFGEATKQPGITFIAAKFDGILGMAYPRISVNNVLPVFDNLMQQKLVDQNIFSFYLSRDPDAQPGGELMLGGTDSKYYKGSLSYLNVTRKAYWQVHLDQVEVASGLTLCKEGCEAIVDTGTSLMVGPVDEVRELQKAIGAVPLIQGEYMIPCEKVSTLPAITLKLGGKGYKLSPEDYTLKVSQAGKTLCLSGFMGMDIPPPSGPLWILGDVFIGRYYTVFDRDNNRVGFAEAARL
Chain of β-secretase in neuroblastoma cells (P56817 46-501): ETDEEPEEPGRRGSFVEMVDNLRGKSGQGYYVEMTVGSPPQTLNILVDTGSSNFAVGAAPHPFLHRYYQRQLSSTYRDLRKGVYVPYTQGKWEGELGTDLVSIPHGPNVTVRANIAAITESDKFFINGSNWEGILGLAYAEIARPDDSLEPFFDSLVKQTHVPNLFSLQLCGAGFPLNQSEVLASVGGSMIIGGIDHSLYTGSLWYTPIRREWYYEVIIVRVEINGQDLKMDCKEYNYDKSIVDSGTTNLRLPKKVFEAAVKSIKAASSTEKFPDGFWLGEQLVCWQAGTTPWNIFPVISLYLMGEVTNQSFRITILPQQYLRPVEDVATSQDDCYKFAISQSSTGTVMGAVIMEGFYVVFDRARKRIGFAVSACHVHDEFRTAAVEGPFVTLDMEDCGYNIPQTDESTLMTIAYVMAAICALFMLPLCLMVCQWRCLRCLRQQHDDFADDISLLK
Chain of recombinant β-secretase (BACE 1, memapsin 2) (P56817 46-501): as above

SMILES	IC50 [1, 3] [nM]	selectivity against CD (in words) (human CD (cathepsin D))	Ki (human CD (cathepsin D)) [nM]	selectivity CD/BACE 1 (human CD (cathepsin D))	Ki [2, 4] [nM]	BACE 1 inhibitory activity (in words) ([2]; recombinant β-secretase)	also measured
CC[C@H](NC[C@H](Cc1ccccc1)NC(=O)c1cc(C(=O)N[C@H](C)c2ccccc2)cc(N(C)S(C)(=O)=O)c1)C(=O)NCC(C)C [Inhibitor 4]	9.5	marginal selectivity	8260	>300	27	–	selectivity against BACE 2 (in words) (recombinant BACE 2): marginal selectivity; selectivity against BACE 2 (recombinant BACE 2; BACE 1 over BACE 2): > 50 fold; selectivity BACE 2/BACE 1 (recombinant BACE 2): >55; Ki (recombinant BACE 2): 1450 nM
CC(C)CN(C)C(=O)[C@@H](NC[C@H](Cc1ccccc1)NC(=O)c1cc(C(=O)N[C@H](C)c2ccccc2)cc(N(C)S(C)(=O)=O)c1)[C@H](C)O [Inhibitor 7]	–	–	–	–	–	abolished all BACE 1 inhibitory activity	Ki [2]: > 1000 nM
CO[C@@H](C)[C@H](NC[C@H](Cc1ccccc1)NC(=O)c1cc(C(=O)N[C@H](C)c2ccccc2)cc(N(C)S(C)(=O)=O)c1)C(=O)NCC(C)C [Inhibitor 8]	–	–	–	–	25	substantial reduction in inhibitory potency	–
CC(C)CNC[C@@H](NC[C@H](Cc1ccccc1)NC(=O)c1cc(C(=O)N[C@H](C)c2ccccc2)cc(N(C)S(C)(=O)=O)c1)[C@H](C)O [Inhibitor 9]	–	–	–	–	–	total loss in potency	–
CCc1cn2c3c(cc(C(=O)N[C@H](CN[C@H](C(=O)NCC(C)C)[C@H](C)O)Cc4ccccc4)cc13)N(C)S(=O)(=O)CC2 [Inhibitor 18]	22	–	7100	>970	7.3	–	ratio of cell inhibitory to enzyme inhibitory efficacy ([1]; cellular IC50 / BACE 1 Ki): 3; selectivity against CD (human CD (cathepsin D)): over 970 fold
CCC[C@H](O)[C@H](NC[C@H](Cc1ccccc1)NC(=O)c1cc2c3c(c1)c(CC)cn3CCS(=O)(=O)N2C)C(=O)NCC(C)C [Inhibitor 19]	–	improvement in CD selectivity	690	>1700	0.4	–	improvement in the potency ([2]; BACE 1 Ki, inhibitor 19 versus inhibitor 18): around 18 fold
CCC[C@H](O)[C@H](NC[C@H](Cc1ccccc1)NC(=O)c1cc2c3c(c1)c(CC)cn3CC(C)(C)S(=O)(=O)N2C)C(=O)NCC(C)C [Inhibitor 20]	15	excellent selectivity	530	>14700	0.036	–	selectivity against BACE 2 (in words) (recombinant BACE 2): good selectivity; selectivity BACE 2/BACE 1 (recombinant BACE 2): >300; Ki (recombinant BACE 2): 11 nM; potency enhancement ([2]; BACE 1 Ki, over unsubstituted inhibitor 19): > 10 fold
CCc1cn2c3c(cc(C(=O)N[C@H](CN[C@H](C(=O)NCC(C)C)[C@H](C)O)Cc4ccccc4)cc13)N(C)S(=O)(=O)C1(CC1)C2 [Inhibitor 21]	–	–	–	–	7.2	impressive potency	–
CCC[C@H](O)[C@H](NC[C@H](Cc1ccccc1)NC(=O)c1cc2c3c(c1)c(CC)cn3CC1(CC1)S(=O)(=O)N2C)C(=O)NCC(C)C [Inhibitor 22]	–	–	2000	>4200	–	impressive potency	IC50 [1]: 14 nM; selectivity against CD (human CD (cathepsin D)): > 4200 fold; Ki [2]: 0.47 nM
